Assay results as given in PMC5658359, “A potent small-molecule inhibitor of the DCN1-UBC12 interaction that selectively blocks cullin 3 neddylation” (Nature Communications, 2017).

Key:
NEDD8 E1 (APP-BP1/Uba3) = target: T1, NEDD8 E1 (APP-BP1/Uba3) (Homo sapiens, UniProt Q8TBC4); experiment: In vitro UBC12~NEDD8 thioester forming assay; format: biochemical; settings: DI-591 at concentrations up to 100 µM
T1 construct: purchased Boston Biochem
T1 sequence (Q8TBC4 1-463): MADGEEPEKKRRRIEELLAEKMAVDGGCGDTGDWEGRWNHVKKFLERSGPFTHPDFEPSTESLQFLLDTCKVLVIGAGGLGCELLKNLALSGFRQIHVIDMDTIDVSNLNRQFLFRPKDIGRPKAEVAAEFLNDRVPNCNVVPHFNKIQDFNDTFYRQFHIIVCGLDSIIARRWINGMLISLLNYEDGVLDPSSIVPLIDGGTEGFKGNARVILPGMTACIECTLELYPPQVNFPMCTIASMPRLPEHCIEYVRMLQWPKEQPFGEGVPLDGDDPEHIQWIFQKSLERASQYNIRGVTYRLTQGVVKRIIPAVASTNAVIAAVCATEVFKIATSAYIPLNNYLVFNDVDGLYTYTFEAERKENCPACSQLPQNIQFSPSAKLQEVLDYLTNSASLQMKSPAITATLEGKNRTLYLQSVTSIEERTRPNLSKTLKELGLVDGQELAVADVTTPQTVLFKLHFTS
T1 sequence (Q13564 1-534 partner): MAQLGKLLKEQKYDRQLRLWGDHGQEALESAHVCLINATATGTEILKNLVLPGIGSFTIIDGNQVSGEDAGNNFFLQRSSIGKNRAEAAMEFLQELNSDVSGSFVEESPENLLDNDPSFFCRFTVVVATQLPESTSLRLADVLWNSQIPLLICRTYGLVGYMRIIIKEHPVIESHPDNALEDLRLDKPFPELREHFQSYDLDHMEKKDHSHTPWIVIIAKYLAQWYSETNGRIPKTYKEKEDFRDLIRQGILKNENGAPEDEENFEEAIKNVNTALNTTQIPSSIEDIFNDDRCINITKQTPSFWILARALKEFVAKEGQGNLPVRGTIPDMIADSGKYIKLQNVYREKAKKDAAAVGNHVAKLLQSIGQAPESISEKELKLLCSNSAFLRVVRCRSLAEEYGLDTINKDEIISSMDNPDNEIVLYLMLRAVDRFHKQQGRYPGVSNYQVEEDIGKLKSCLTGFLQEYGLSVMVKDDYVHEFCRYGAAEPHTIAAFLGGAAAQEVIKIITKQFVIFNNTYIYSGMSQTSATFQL
Experimental: NEDD8, NEDD8 E1 (APP-BP1/Uba3) and UBC12 proteins were purchased from Boston Biochem. NEDD8 (10 μM), NEDD8 E1 (25 nM), and UBC12 (2 μM) were incubated in Tris-HCl (pH 7.4, 50 mM), MgCl2 (5 mM), DTT (0.5 mM) and BSA (0.1 mg/ml), with a tested compound at 25 °C for 10 min. Reactions were initiated by addition of 2 mM ATP (or distilled H2O) and ran for 5 min at 25 °C. 1 M DTT (or distilled H2O) was added to the reaction mixtures which were then kept on ice for 1 min followed by addition of SDS loading buffer (without DTT). The products were separated by SDS–PAGE, visualized by Coomassie stain and quantified by ImageLab (Bio-Rad).
1 Supplementa ry Figure 3:
3 Supplementary Figure 3. In vitro U BC12~N EDD8 thio ester forming assay.N EDD8,
4 NEDD8 E1 (APP -BP 1/Uba3) and UBC12 were purchased from Boston Biochem. 10μ M
5 NEDD8, 25nM N EDD8 E1,and 2μ M UBC12 were incubated in 50mM Tris-HCl (pH 7.4), 5mM
6 M gC l 2, 0.5mM DTT, and 0.1mg/ml BSA, with indicated compounds at 25℃ for 10min.
7 Reactions were initiated by addition o f 2mM ATP (or dH2O) and w ere run for 5min at 25℃ .
8 Reaction mixtures were t hen added with 1M DTT (or dH 2O) and kept on ice for 1min followed
9 by addition of SDS Loading buffer (without DTT). The products were s eparated b y SDS-PAGE,
10 visualized by Coomassie stain and quantified using an ImageLab imager ( Bio-Rad). […]

NRF2 mRNA = experiment: qRT-PCR of NRF2 mRNA in THLE2 cells; format: cell-based; settings: THLE2, 10 µM
From the text: (§1) Total RNA in treated cells was isolated with the RNeasy Mini Kit (Qiagen, Germantown, MD). RNA was reverse transcribed into complementary DNA (cDNA) using high capacity RNA-to-cDNA kit (Applied Biosystems, Carlsbad, California). […] GAPDH was used as an internal reference. […] Error bars correspond to SD from three independent experiments.

neddylation of cullin 3 = experiment: Western blotting of neddylated and un-neddylated cullin 3 in cells; format: cell-based; settings: THLE2 liver cells, DI-591 at 10 µM
From the text: (§2) Treated cells were lysed by RIPA buffer supplemented with protease and phosphatase inhibitors. The expression level of indicated proteins was examined by immunoblotting analysis. GAPDH was used as the loading control.

[1] = Equilibrium aqueous solubility, small-scale shake-flask method; settings: for solubility at 24 h: thermodynamic from solid
Experimental: The equilibrium aqueous solubility of an individual compound at different pH values was determined with a small-scale shake-flask method in Eppendorf tubes. Compounds were added as powder in excess to Britton-Robinson buffer at pH 2.0 or phosphate buffer at pH 7.4 until heterogeneous suspensions were obtained. Suspensions containing excessive compound powder were sonicated in a water bath for 30 min followed by incubation at room temperature with shaking for 24 h to achieve thermodynamic equilibrium. […] Supernatants obtained were filtered using Millipore MultiScreen filter plates equipped with 0.45 µm membranes. Compound concentrations in the saturated solutions were measured by UV spectroscopy at the maximum absorption wavelengths of each compound that were pre-determined by a spectrum scan.

NQO1 and HO1 mRNA = experiment: qRT-PCR of NRF2-regulated genes in THLE2 cells; format: cell-based; settings: THLE2, 10 µM
From the text: as §1

DCN3 = target: T2, DCN3 (Homo sapiens, UniProt Q8IWE4); experiment: Label-free BLI assay, DCN3; format: binding; settings: concentrations up to 10 µM
T2 construct: DCN2 (residues 62–259), DCN3 (residues 86–304), DCN4 (residues 102–292) and DCN5 (residues 47–237); His6-TEV (N, cleaved yes); made in house; host or cells: Rosetta2 cells (E. coli)
T2 sequence (Q8IWE4 86-304): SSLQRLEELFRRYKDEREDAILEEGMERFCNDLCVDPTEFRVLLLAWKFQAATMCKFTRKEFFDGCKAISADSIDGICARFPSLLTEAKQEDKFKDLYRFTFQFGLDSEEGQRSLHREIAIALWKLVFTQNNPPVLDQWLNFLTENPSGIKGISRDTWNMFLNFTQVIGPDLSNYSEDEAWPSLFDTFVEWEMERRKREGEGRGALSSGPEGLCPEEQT

NRF2 = experiment: Western blotting of NRF2 protein in cells; format: cell-based; settings: western blot, 24 h
From the text: as §2

p21, Bim, CDT1 = experiment: Western blotting of cullin 1 and 4A CRL substrates in cells; format: cell-based; settings: western blot, 24 h
From the text: as §2

DCN4 = target: T3, DCN4 (Homo sapiens, UniProt Q92564); experiment: Label-free BLI assay, DCN4; format: binding; settings: concentrations up to 10 µM
T3 construct: DCN2 (residues 62–259), DCN3 (residues 86–304), DCN4 (residues 102–292) and DCN5 (residues 47–237); His6-TEV (N, cleaved yes); made in house; host or cells: Rosetta2 cells (E. coli)
T3 sequence (Q92564 102-292): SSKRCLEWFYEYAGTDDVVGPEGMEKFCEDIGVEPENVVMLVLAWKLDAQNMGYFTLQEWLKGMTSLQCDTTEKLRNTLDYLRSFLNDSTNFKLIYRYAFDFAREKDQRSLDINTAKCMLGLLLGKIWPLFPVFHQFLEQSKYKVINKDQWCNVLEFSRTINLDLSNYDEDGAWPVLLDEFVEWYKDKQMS

DCN5 = target: T4, DCN5 (Homo sapiens, UniProt Q9BTE7); experiment: Label-free BLI assay, DCN5; format: binding; settings: concentrations up to 10 µM
T4 construct: DCN2 (residues 62–259), DCN3 (residues 86–304), DCN4 (residues 102–292) and DCN5 (residues 47–237); His6-TEV (N, cleaved yes); made in house; host or cells: Rosetta2 cells (E. coli)
T4 sequence (Q9BTE7 47-237): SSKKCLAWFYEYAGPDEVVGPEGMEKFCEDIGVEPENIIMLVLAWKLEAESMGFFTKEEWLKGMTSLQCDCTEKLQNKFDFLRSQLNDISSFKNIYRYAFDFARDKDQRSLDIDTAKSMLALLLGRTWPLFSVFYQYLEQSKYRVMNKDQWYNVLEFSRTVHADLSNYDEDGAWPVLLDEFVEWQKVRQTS

[2] = tested on: THLE2 cells and five additional cancer cell lines; experiment: Cell viability, WST assay, panel of 6 cell lines; format: cell-based; settings: DI-591 at concentrations up to 20 µM
[3] = tested on: neddylation of cullin 1 and other cullins; experiment: Western blotting of neddylated and un-neddylated cullin 1 and other cullins in cells; format: cell-based; settings: THLE2 liver cells, up to 24 h, DI-591 10 µM, MLN4924 0.3 µM
From the text: as §2

inhibition of UBC12 neddylation (E1 activity), in words (NEDD8 E1 (APP-BP1/Uba3)): no such effect
aqueous solubility (in words) [1]: excellent
solubility at 24 h ([1]; Britton-Robinson buffer, pH 2, aqueous buffer): > 20 mM
solubility at 24 h ([1]; Britton-Robinson buffer, pH 2.02, aqueous buffer): > 20 mM
solubility at 24 h ([1]; phosphate buffer, pH 7.4, aqueous buffer): > 20 mM
binding to DCN3 (in words) (DCN3): no appreciable binding
binding to DCN4 (in words) (DCN4): no appreciable binding
binding to DCN5 (in words) (DCN5): no appreciable binding
Structure (SMILES): CCC(=O)N[C@@H](Cc1nc2ccc(C(C)C)cc2s1)C(=O)N[C@H](CNC(=O)CCN1CCOCC1)C1CCCCC1 [DI-591]
mRNA level of NRF2 (in words) (NRF2 mRNA): no effect
time to complete depletion of neddylated cullin 3 (neddylation of cullin 3): ≤ 5 min
mRNA levels of NQO1 and HO1 (in words) (NQO1 and HO1 mRNA): robustly increases
NRF2 protein level (in words) (NRF2): dose dependently increases
protein levels of p21, Bim and CDT1 (in words) (p21, Bim, CDT1): no or minimal effect
cytotoxicity (in words) [2]: no significant cytotoxicity
effect on neddylation of cullin 1, time course (in words) [3]: no effect
